In this assay the test system is C. albicans CaCi-8 + fluconazole, Alamar Blue growth, 48 h. As to the kind of experiment: resistant C. albicans growth inhibition with fluconazole, dose response, CaCi-8 strain, Alamar Blue fluorescence (AID 2423). In general terms: Resazurin is reduced to fluorescent resorufin, in cell work by metabolically active cells.

Results filed as inconclusive are left out. Calls of active or inactive are those of the source. The rule behind the calls is not given here. Bounds are passed on as bounds.

For orientation: EC50 means the concentration at which the effect is half-maximal. In the case of `C=CCn1c(=N)n(CC(=O)c2cccc([N+](=O)[O-])c2)c2ccccc21`, the EC50 is > 16000 nM (inactive).
As for `Cc1ccc(Cn2nnc3c(=O)[nH]c(C4CCN(S(=O)(=O)c5ccc(C)cc5)CC4)nc32)cc1`, the EC50 was > 15000 nM (inactive).
The figure for `Cc1cccc(NC2=NC(=S)N(c3cccc(C(=O)O)c3)C23CCCCC3)c1` is 772 nM; for `Cc1cc(-c2cc(C(=O)O)c3ccccc3n2)c(C)s1` it is 2270 nM.
For `Nc1nsc2ccccc12` the value was > 15000 nM (inactive).
As for `O=C(NCCNC(=O)C(c1ccccc1)c1ccccc1)c1ccco1`, the EC50 was > 15000 nM (inactive).
As for `O=C(Nc1nc2ccc(SC(F)F)cc2s1)c1ccc(NS(=O)(=O)c2ccc(F)c(F)c2)cc1`, the concentration giving a half-maximal response (EC50) is 1640 nM.
`COc1cccc(C2/C(=C(/O)c3ccc(C)cc3)C(=O)C(=O)N2Cc2ccco2)c1` (centres undefined): the EC50 is 7030 nM.
As for `Cc1c2ccccc2nc2c(F)c(NCCO)c(F)c(F)c12`, the EC50 is > 16000 nM (inactive).
`COc1cccc(C(NC(C)=O)c2ccc3cccnc3c2O)c1` (centres undefined): the EC50 is 1730 nM.
In the case of `CC(C)CC(=O)NC(c1cccs1)c1ccc2cccnc2c1O` (centres undefined), the EC50 is 867 nM.
Consider `C[C@H]1CCC/C=C/C2C[C@H](O)CC2[C@H](O)/C=C/C(=O)O1` (some centres undefined), for which the EC50 is 2060 nM.
Consider `CCCCN(CCCC)S(=O)(=O)c1ccc(C(=O)Nc2nnc(COC)o2)cc1`, for which the EC50 is > 15000 nM (inactive).
Regarding `N#C/C(=C(/O)COc1ccc(Cl)cc1)c1nc2ccccc2s1`, the EC50 is > 15000 nM (inactive).
Take `CCCCCCSc1nnc2[nH]c(=O)cc(N)n12`: the EC50 is 1150 nM.
As for `N#Cc1c(Cl)nsc1NC(=O)c1ccccc1`, the EC50 was > 16000 nM (inactive).
For the compound `COC(=O)c1cc(C)sc1NC(=O)c1cccnc1`, the EC50 was 5890 nM.
Take `COc1ccc2c(c1)c(/C=C/c1cc[n+](C)cc1)cn2C`: the EC50 was 5950 nM.
For the compound `Cc1cccc(C(=O)NNC2=C(C(=O)C(F)(F)F)CCC2)c1O`, the EC50 was 1230 nM.
The figure for `O=c1c2cc(Br)ccc2nc(-c2cccc(C(F)(F)F)c2)n1O` is 1040 nM; for `O=C(NC(Nc1nc2ccc([N+](=O)[O-])cc2s1)(C(F)(F)F)C(F)(F)F)c1ccccc1Cl` it is 1040 nM; for `CCCCCCCNC(=O)COc1ccc2c(c1)C(=O)CC(C)(C)O2` it is 1100 nM.
For `CN1CCN(CCCNC(=O)c2ccc(/C=C3\Oc4ccccc4N(Cc4ccc(Cl)cc4)C3=O)cc2)CC1` the value was 7660 nM; for `CCCCN(C)S(=O)(=O)c1ccc(C(=O)Nc2nnc(-c3cccs3)o2)cc1`, > 15000 nM (inactive); for `c1ccc(CN2CCc3nc4ccccc4cc3C2)cc1`, > 16000 nM (inactive).
For `Cc1cc(Nc2ccccc2)nc(NCc2ccccc2)n1` the value was 3350 nM; for `O=C(NCC1CCCO1)c1cc2n(n1)C(C(F)(F)F)CC(c1ccc(Br)cc1)N2` (centres undefined), 7570 nM; for `Cc1ccc(O)c(-c2cc(-c3cccc(Br)c3)n[nH]2)c1`, 6710 nM.
Consider `COC(=O)N/N=C/c1ccc(-c2cc(Cl)cc(Cl)c2)o1`, for which the EC50 is 929 nM.
`COCCSc1nnc(NC(=O)C2CC(=O)N(c3ccc(C)cc3)C2)s1` (centres undefined): the EC50 was > 16000 nM (inactive).
The figure for `Cc1nc2c(=O)oc3ccccc3c2n1-c1ccccc1` is 2430 nM; for `CSc1ncc(Cl)c(C(=O)C(C#N)c2nc3c(C)cc(C)cc3c(=O)[nH]2)n1` (centres undefined) it is > 16000 nM (inactive).
The figure for `CCC(=O)NC(c1ccc(C)cc1)c1cc([N+](=O)[O-])c2cccnc2c1O` (centres undefined) is 513 nM.
For `O=C(NNC(=S)Nc1ccc(Cl)c(Cl)c1)c1ccccn1` the value was 1130 nM; for `CCCCC(=O)NC(c1ccc(Cl)cc1)c1ccc2cccnc2c1O` (centres undefined), 502 nM; for `CCC(C)n1cnc2c(c1=O)c1nc3ccccc3nc1n2Cc1ccc(OC)cc1` (centres undefined), 615 nM.
As for `CC1(C)CC(N2CCCC2)=CC(=[N+]2CCCC2)C1`, the EC50 was 6310 nM.
On to `CCn1nc(-c2ccccc2)nc2c(=O)n(C)c(=O)nc1-2`, for which the EC50 is 883 nM.
As to `Cc1cc(SCC(=O)N/N=C/c2ccc(O)c(O)c2O)c(C)cc1Br`, the EC50 is 884 nM.
Take `CCN(CC)c1ccc(/C=N/Nc2nc3ccccc3[nH]2)cc1`: the EC50 is 870 nM.
For `Cc1ccc(NC(=S)c2nc3ccccc3[nH]2)cc1` the value was > 16000 nM (inactive).
`COc1ccc(-n2nc(C(=O)NCC(=O)N3CCN(c4ccc(F)cc4)CC3)c3ccccc3c2=O)c(OC)c1`: the EC50 was 773 nM.
On to `CC1CCc2c(sc3ncnc(N4CCOCC4)c23)C1` (centres undefined), for which the EC50 is > 16000 nM (inactive).
The figure for `Cc1cc(OC(=O)c2ccco2)c2c3c(c(=O)oc2c1)CCCC3` is 953 nM; for `Cc1ccc(-c2nc3ccc(Cl)cc3c(=O)n2O)cc1` it is 2160 nM; for `Oc1cccc2ccc(Nc3ccccn3)nc12` it is 2350 nM.
On to `O=C(Oc1c(CN2CCOCC2)cc(Cl)c2cccnc12)c1ccccc1Br`, for which the EC50 is 4120 nM.
In the case of `CCOC(=O)CC(/C(C)=N\O)c1ccccc1` (centres undefined), the EC50 was > 16000 nM (inactive).
In the case of `Cc1ccc(O)c(C2=NNC(c3ccc(Cl)cc3)C2)c1` (centres undefined), the EC50 is 395 nM.
Regarding `COc1ccc(Cn2c(O)c(/C=N/NC(=O)c3cccnc3)c3ccccc3c2=O)cc1`, the EC50 was 765 nM.
Regarding `Oc1ccc(Cl)cc1C1=NNC(c2cc(Br)cc3c2OCOC3)C1` (centres undefined), the EC50 was > 16000 nM (inactive).
For the compound `Cn1c(NN=O)nc2ccccc21`, the EC50 was > 15000 nM (inactive).
On to `COc1cc([N+](=O)[O-])cc(/C=N/NC(=O)c2ccc(NC(=O)c3ccc(C)cc3)cc2)c1O`, for which the EC50 was 2340 nM.
As to `CCN=c1scc(-c2ccc3c(c2)NC(=O)CO3)n1N=C1CCCC1`, the EC50 is 7220 nM.
As for `O=C(Nc1nnc(-c2ccco2)o1)c1ccc(Cl)cc1`, the EC50 is 1160 nM.
As for `CC(=O)c1cc(C#N)c(N2CCCC2)nc1C`, the EC50 was > 16000 nM (inactive).
As to `O=C(ONC1=NCCCCC1)c1cccc([N+](=O)[O-])c1`, the EC50 is 969 nM.
Regarding `O=C(NCc1ccccc1)c1sc(=S)n2c1[nH]c(=O)c1ccccc12`, the EC50 is 948 nM.
As for `CCCCn1c(CN2CCN(C(=O)OCC)CC2)nc2c1c(=O)n(C)c(=O)n2C`, the EC50 was > 15000 nM (inactive).
Turning to `CCc1cc(C(=O)NC2CCCc3c2cnn3-c2cccc(C)c2C)n(C)n1` (centres undefined), the 50% effective concentration (EC50) is 232 nM.
Regarding `C/C(=C\C(=O)OCCCCCCCCC(=O)O)C[C@@H]1OC[C@H](C[C@@H]2O[C@H]2[C@@H](C)[C@H](C)O)[C@@H](O)[C@H]1O`, the EC50 is > 15000 nM (inactive).
For `CCOc1cc(C=O)cc(N=Nc2cccc([N+](=O)[O-])c2)c1O`, the 50% effective concentration (EC50) is 639 nM.
Consider `CCOC(=O)COc1ccc(S(=O)(=O)N2CCN(c3ccccc3F)CC2)cc1`, for which the EC50 was > 15000 nM (inactive).
For the compound `CCCCNC(=O)/C(=C\c1ccc([N+](=O)[O-])o1)NC(=O)c1ccccc1`, the EC50 was > 15000 nM (inactive).
For `Cc1cc(SCC(=O)N/N=C/c2ccc(O)cc2O)c(C)cc1Br` the value was 5010 nM; for `Cc1cc(Sc2nc(N)ncc2[N+](=O)[O-])ncn1`, 2150 nM.
Consider `O=C(Cc1cnn(-c2ccccc2)c1)c1ccc(O)c(O)c1O`, for which the EC50 is 8400 nM.
Take `CN(Cc1ccccc1)S(=O)(=O)c1ccc(C(=O)Nc2nnc(C3CC3)o2)cc1`: the EC50 is 291 nM.
For `CN1CCN(C(c2ccc(C(F)(F)F)cc2)c2cc(Cl)c3cccnc3c2O)CC1` (centres undefined) the value was 787 nM.

Source of the values: PubChem BioAssay AID2423 (Broad Institute, 2010).
